Key:
[1] = test system: embyronic fibroblasts of mouse NIH-3T3; test: Endocellular pHi of fibroblasts by microspectrofluorimetry (FDA, BCECF-AM); assay type: cell-based; conditions: for rise of pHi: fibroblasts in an attached spread state; for increase of pHi: 20 minutes
Procedure: The effect of the compounds according to the invention on the endocellular pH, embyronic fibroblasts of mouse NIH-3T3 supplied by the All-Russian Collection of Cellular Cultures of the Institute of Cytology of the Russian Academy of Sciences St. Petersburg was investigated. The cells were grown in the DMEM (Sigma) medium containing 2.2 g/l of sodium bicarbonate with addition of 80.0 mkg/ml of gentamicin and 10.0% embryonal veal serum at a temperature of 37° C. in an atmosphere containing 5.0% of carbon dioxide. For these experiments use was also made of a medium buffer with 5.0 mM of HEPES and 15.0 mM of sodium bicarbonate without serum or with addition of 5.0% serum. The cells were calculated with the help of a hemocytometer. A share of the dead cells was determined by colouring trypan blue.
The measurements of the endocellular pHi were carried out with the help of colorants FDA (Sigma) and BCECF-AM (Calbiochem) on a microspectrofluorimeter by a standard technique (Koshevoy Yu. V., Akatov V. S., Grobova M. E. Microspectrofluorimeter for measuring endocellular pH (micro pH)”. Devices and equipment for studies in the field of physical-and-chemical biology and biotechnology. Pushchino, 1990. P. 8-14).
The cells at a temperature of 37° C. were colored within 5 minutes with 5.0 mkM PDA that before the colouring was prepared from a 10.0 mM solution in acetone by dilution for 30 minutes in a phosphatic buffer to 0.1 mM or 2.0 mkM 1.0 mM solution BCECF-AM in DMSO.
The two-wave method of determining pHi was used based on the ratio intensities of fluorescence of the cells on two wavelengths (Akatov V. S. et all), “Endocellular pH and substrate dependence of proliferation of fibroblasts of Chinese hamster, Cytology, 1991, 33 (7), p. 86-94). The fluorescence was excited by light at λ=490 nm, the emission was recorded simultaneously with two photomultipliers on wavelengths λ=535 nm and λ=570 nm. The K-ratio of the fluorescence on two wavelengths was determined with a deduction of the background fluorescence of the medium near the investigated cells for 40-60 individual cells, which are then averaged taking into account the measurement error. A thermostatically controlled table was used that allowed measurements to be conducted at a temperature of 37° C. An account was taken for the photodynamic damage of the pigmented cells during-long-time continuous illumination by excited light. The readings were taken from a section of the preparation exposed to light for not more than 5 minutes.
The calibration curves for determining the absolute pHi values by magnitude K were constructed using the Thomas technique (Thomas J. A., Bushbaum R. N., Zimniak A. w Racker E. “Intracellular pH measurements in Ehrlich ascites tumor cells utilizing spectroscopic probe generated in situ”, Biochemistry, 1979, v. 18, p. 2210-2218), for which case the pigmented cells treated for 5-10 minutes with carboxyacidic nigericyn (Calbiochem) at a concentration of 5-10 mkg/ml was placed in a solution with a high content of potassium—130 mM KCl, 1.0 mM MgCl2, 20.0 mM of HEPES) and with pH values from 6.2 to 7.6. The K values were measured in the media with different pH assuming that pHi of the cells equals to the pH of the medium due to the action of nigericyn, which exchanges potassium ions for protons and at a high content of potassium in the medium counterbalances the pH of the medium and cells. Calibration curves were used based on the fluorescence of same medium with addition of 5.0 mkM of fluorescence or BCECF were used to the control the stability of the of the instrument readings.
The correctness of the technique was confirmed in the experiments on measurements of pH values of cells treated with protonofor monencine raising pH of the cells due to replacement of sodium ions by protons, and by determining the dependence of the change of pHi on the change of the pH of the medium. […]

[2] = Polarographic study of electrochemical reduction (electrochemical activity); assay type: physicochemical; conditions: for number of electrons participating in the reduction: calculated with the Geirovsky-Ilkovich equation; for i, mkA (polarographic wave current) / −E1/2, V (half-wave potential vs SCE): 37° C., forward trace, average for the group; for i, mkA (polarographic wave current): 9·10^−4 M; for half-wave potential more positive on reverse stroke than on forward stroke: reverse stroke vs forward stroke
Procedure: The study was carried out on a general-purpose polarograph PU-1 with a two-coordinate recorder of the “LKD” type using a three-electrode thermostatically controlled polarographic cell and mercury dripping electrode (MDE) with forced separation of the drop and a dropping period of 0.5 second. A platinum wire was used as an auxiliary electrode and a saturated calomel electrode (SCE) was used as a control electrode.
2.0% solutions of sodium chloride having pH 7.0, 7.2, 7.4, 7.6 were used as a background; the pH values of the background solution were corrected by a solution of sodium hydroxide. The polarographic cell was filled with 5.0 ml of the background solution and for 5 minutes was purged with nitrogen for removing the dissolved oxygen. Then 0.5 ml of solution of the studied substance was added to the background solution, and the polarogram was recorded as a polarographic wave. The concentration of the compounds in the polarographic cell was 9·10^−4 M.
The pH was measured on the pH-meter with an accuracy of ±0.05 pH units. The polarographic measurements were carried out at a temperature of 37° C. The recording of polarograms of the investigated materials was effected under conditions of DC current at a scanning rate of the potential 10.0 mV/s with a active scanning stroke from a potential 0 to −0.5 V and sweep retrace from a −0.5 V to 0. The electric-current sensitivity was 5.0 mkA. The scale by the coordinate of the potentials was 50.0 mV/cm. The values of potentials of the half-wave E1/2 of the investigated materials are given with respect to the SCE potential.
The polarogram parameters such as a limiting current ilim and E1/2 were determined by the graphic method. The number of electrons participating in the reaction was calculated on the basis of the analysis of the polarographic wave using the Geirovsky-Ilkovich equation.

[3] = medium with 10.0% blood serum, 0.02 mkg/ml, suspension
[4] = medium with 10.0% blood serum, 0.2 mkg/ml, suspension
[5] = medium with 10.0% blood serum, 2.0 mkg/ml, suspension
[6] = medium with 10.0% blood serum, 20.0 mkg/ml, suspension
[7] = medium without blood serum, 0.02 mkg/ml
[8] = medium without blood serum, 0.2 mkg/ml
[9] = medium without blood serum, 2.0 mkg/ml
[10] = medium without blood serum, 20.0 mkg/ml
[11] = medium without blood serum, 200 mkg/ml
[12] = medium without blood serum, 1000 mkg/ml

With `O=c1[nH][nH]c(=O)c2ncccc12.[Na]` [Compound 7, sodium salt of pyrido[2,3-d]-6H-pyridazine-5,8-dione] the “rise of pHi” value ([1]; 2.0 mkg/ml) was 0.10 unit pHi, the “rise of pHi” value ([1]; 20.0 mkg/ml) was 0.07 unit pHi and the “increase of pHi” value [1, 3] was “do not initiate a change of pH”. For the same compound, the “increase of pHi” value [1, 4] was 0.1 unit pH, the “increase of pHi” value [1, 5] was 0.12 unit pH and the “increase of pHi” value [1, 6] was “do not initiate a change of pH”. The “increase of pHi” value [1, 7] was “no effect was found”, the “increase of pHi” value [1, 8] was “no effect was found” and the “increase of pHi” value [1, 9] was 0.08 unit pHi. The “increase of pHi” value [1, 10] was 0.08 unit pHi, the “increase of pHi” value [1, 11] was “no effect was found” and the “increase of pHi” value [1, 12] was “no effect was found”. The “number of electrons participating in the reduction” value (“number … in the reduction” below) [2] was 3.72, the “i, mkA (polarographic wave current)” value ([2]; pH 7.0) was 0.26 ± 0.04 mkA and the “−E1/2, V (half-wave potential vs SCE)” value ([2]; pH 7.0) was 0.11 ± 0.02 V. The “i, mkA (polarographic wave current)” value ([2]; pH 7.2) was 0.31 ± 0.02 mkA, the “−E1/2, V (half-wave potential vs SCE)” value ([2]; pH 7.2) was 0.11 ± 0.03 V and the “i, mkA (polarographic wave current)” value ([2]; pH 7.4) was 0.27 ± 0.03 mkA. For the same compound, the “−E1/2, V (half-wave potential vs SCE)” value ([2]; pH 7.4) was 0.105 ± 0.01 V, the “i, mkA (polarographic wave current)” value ([2]; pH 7.6) was 0.30 ± 0.01 mkA and the “−E1/2, V (half-wave potential vs SCE)” value ([2]; pH 7.6) was 0.105 ± 0.02 V. For the same compound, the “half-wave potential more positive on reverse stroke than on forward stroke” value (shortened to “half-wave potential more positive”) [2] was 25.0 mV.
In the case of `O=C([O-])c1ccc2c(=O)[nH][nH]c(=O)c2c1.O=C([O-])c1ccc2c(=O)[nH][nH]c(=O)c2c1.[Na+].[Na+]` [Compound 18, disodium salt of 6-carboxy-benzo[d]-3H-pyridazine-1,4-dione], the “rise of pHi” value ([1]; 2.0 mkg/ml) is reported as 0.10 unit pHi, the “rise of pHi” value ([1]; 20.0 mkg/ml) is reported as 0.07 unit pHi and the “increase of pHi” value [1, 3] is reported as “do not initiate a change of pH”. For the same compound, the “increase of pHi” value [1, 4] was 0.1 unit pH, the “increase of pHi” value [1, 5] was 0.12 unit pH and the “increase of pHi” value [1, 6] was “do not initiate a change of pH”. For the same compound, the “increase of pHi” value [1, 7] was “no effect was found”, the “increase of pHi” value [1, 8] was “no effect was found” and the “increase of pHi” value [1, 9] was 0.08 unit pHi. For the same compound, the “increase of pHi” value [1, 10] was 0.08 unit pHi, the “increase of pHi” value [1, 11] was “no effect was found” and the “increase of pHi” value [1, 12] was “no effect was found”. For the same compound, the “number … in the reduction” value [2] was 4.09, the “i, mkA (polarographic wave current)” value ([2]; pH 7.0) was 0.23 ± 0.03 mkA and the “−E1/2, V (half-wave potential vs SCE)” value ([2]; pH 7.0) was 0.092 ± 0.02 V. The “i, mkA (polarographic wave current)” value ([2]; pH 7.2) was 0.30 ± 0.01 mkA, the “−E1/2, V (half-wave potential vs SCE)” value ([2]; pH 7.2) was 0.09 ± 0.01 V and the “i, mkA (polarographic wave current)” value ([2]; pH 7.4) was 0.29 ± 0.02 mkA. The “−E1/2, V (half-wave potential vs SCE)” value ([2]; pH 7.4) was 0.092 ± 0.02 V, the “i, mkA (polarographic wave current)” value ([2]; pH 7.6) was 0.31 ± 0.02 mkA and the “−E1/2, V (half-wave potential vs SCE)” value ([2]; pH 7.6) was 0.09 ± 0.01 V. The “half-wave potential more positive” value [2] was 30.0 mV.
In the case of `O=c1[nH][nH]c(=O)c2ncncc12.[Li]` [Compound 35, lithium salt of pyrimido[4,5-d]-6H-pyridazine-5,8-dione], the “rise of pHi” value ([1]; 2.0 mkg/ml) is reported as 0.10 unit pHi, the “rise of pHi” value ([1]; 20.0 mkg/ml) is reported as 0.07 unit pHi and the “increase of pHi” value [1, 3] is reported as “do not initiate a change of pH”. For the same compound, the “increase of pHi” value [1, 4] was 0.1 unit pH, the “increase of pHi” value [1, 5] was 0.12 unit pH and the “increase of pHi” value [1, 6] was “do not initiate a change of pH”. The “increase of pHi” value [1, 7] was “no effect was found”, the “increase of pHi” value [1, 8] was “no effect was found” and the “increase of pHi” value [1, 9] was 0.08 unit pHi. The “increase of pHi” value [1, 10] was 0.08 unit pHi, the “increase of pHi” value [1, 11] was “no effect was found” and the “increase of pHi” value [1, 12] was “no effect was found”. The “number … in the reduction” value [2] was 3.5, the “i, mkA (polarographic wave current)” value ([2]; pH 7.0) was 0.30 ± 0.05 mkA and the “−E1/2, V (half-wave potential vs SCE)” value ([2]; pH 7.0) was 0.08 ± 0.02 V. For the same compound, the “i, mkA (polarographic wave current)” value ([2]; pH 7.2) was 0.26 ± 0.02 mkA, the “i, mkA (polarographic wave current)” value ([2]; pH 7.4) was 0.30 ± 0.03 mkA and the “−E1/2, V (half-wave potential vs SCE)” value ([2]; pH 7.4) was 0.085 ± 0.02 V. The “i, mkA (polarographic wave current)” value ([2]; pH 7.6) was 0.30 ± 0.02 mkA, the “−E1/2, V (half-wave potential vs SCE)” value ([2]; pH 7.6) was 0.09 ± 0.02 V and the “half-wave potential more positive” value [2] was 27.0 mV.

Source: patent publication US20070166547A1, “Use of a layer consisting of hydrophobic linear, or two-dimensional polycyclic aromatics as a barrier layer or an encapsulation and electric components constructed with a layer of this type and comprising organic polymers” (priority 2003, published 2007)
